According to ChEMBL document CHEMBL1148664, “Synthesis and biological evaluation of rhodanine derivatives as PRL-3 inhibitors” (Bioorg Med Chem Lett, 2006):
Activity calls are given as the source filed them. The calls are words filed in the database; no cut-off is given here.

How the values were obtained:
[1] = biological target: T1, Protein tyrosine phosphatase type IVA 3 (Homo sapiens, UniProt O75365); test: Inhibition of human recombinant PRL-3 up to 50 uM
[2] = biological target: T1, Protein tyrosine phosphatase type IVA 3; test: Inhibition of human recombinant PRL-3
[3] = tested on: B16-F10; test: Ability to reduce the invasiveness of tumor in B16F10 cells; format: functional, cell-based; details: Mus musculus

T1 sequence (O75365 whole entry): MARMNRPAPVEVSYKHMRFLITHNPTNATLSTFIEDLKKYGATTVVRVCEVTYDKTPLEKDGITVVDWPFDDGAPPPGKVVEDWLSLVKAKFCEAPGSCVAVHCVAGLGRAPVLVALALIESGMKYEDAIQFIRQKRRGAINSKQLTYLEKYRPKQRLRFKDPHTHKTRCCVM

inhibition [1] | SMILES | other results
inactive | O=C1NC(=O)/C(=C/c2cc(Br)ccc2OCc2ccccc2)S1 | 
inactive | CN1C(=O)/C(=C/c2cc(Br)ccc2OCc2ccccc2)SC1=S | 
inactive | O=C1NC(=S)S/C1=C\c1cc(Br)ccc1OCc1cccnc1 | 
inactive | O=C1NC(=S)S/C1=C\c1ccccc1OCc1ccccc1 | 

The next lines start with the compound.

SMILES | inhibition [1] | other results
N=C(N)c1ccc(OCCCCCOc2ccc(C(=N)N)cc2)cc1 [PENTAMIDINE] |  | IC50 [2]: 53.6 µM
O=C1NC(=S)S/C1=C\c1cc2ccccc2cc1OCc1c(F)cccc1Cl |  | Activity [3]: Active
CS(=O)(=O)Oc1ccc(Br)cc1/C=C1\SC(=S)NC1=O | inactive | 
O=Cc1cc(Br)ccc1O | inactive | 
O=C1NC(=S)S/C1=C\c1cc(Br)ccc1O |  | IC50 [2]: 9.5 µM
O=C1NC(=S)S/C1=C\c1cc(Br)ccc1OCc1ccccc1Br |  | Activity [3]: Active
